Measured values published in US20260294863A1, “METHOD OF TREATING FIBROTIC-RELATED CONDITION” (YISSUM RESEARCH DEVELOPMENT COMPANY OF THE HEBREW …, priority 2023, published 2026).
Entries after “also recorded” stand apart in the source; their conditions may differ.

Key:
[1] = tested on: TNFα; experiment: Secretion of TNFα from BzATP/LPS-activated microglia (ELISA); format: cell-based, Balb/C mice; details: all concentrations tested, added 2 hrs before BzATP and LPS, 0.1% BSA; p<0.01
Experimental: (§1) Experiments were performed on primary microglial cells isolated from brains of neonatal Balb/C mice as previously described (Reichert and Rotshenker, 2003). The brains were stripped of their meninges and enzymatically dissociated. Cells were plated on Poly-L-lysine coated flasks for one week, re-plated for 1- to 2-hr on bacteriological plates and non-adherent cells were washed away. Microglia were propagated by incubation in 20% of medium, conditioned by the L-cell line that produces mouse-CSF. They were identified by morphology and positive immune-reactivity to P2y12, F4/80, complement receptor-3 and Galectin-3/MAC-2 (Reichert and Rotshenker 2003; Gitik et al. 2011).
(§2) Cytokines were measured as previously described (Shamash et al. 2002) using ELISA Max deluxe set (Biolegend, CA, USA) for secreted TNFα and IL-6 proteins and ELISA DuoSet (R&D systems, UK) for secreted and cell associated IL-1β, according to manufacturer's instructions.
(§3) The effect of ladostigil at concentrations of 1×10^−13 M to 1×10^−9 M on the secretion of cytokine proteins was assessed by adding it to microglia for 2 hr before LPS (0.75 μg/ml) and BzATP (400 μM). Other microglia were treated similarly with the steroid, budesonide as a reference standard at concentrations of 1× 10^−13 to 1× 10^−11 M. Measurements of cytokine secretion were performed 8 hrs after addition of LPS and BzATP. Since the levels of secreted IL-1β were still low, samples were concentrated 2- to 4-fold by an Amicon ultra-centrifugal filter device (Merck-Millipore, Ireland). ELISA was used to quantify the levels of cytokine proteins. Protein content in the microglia lysate was measured by Bradford and levels of cytokines were calculated and presented as pg/μg of microglial protein.

[2] = tested on: IL6; experiment: Secretion of IL6 from BzATP/LPS-activated microglia (ELISA); format: cell-based, Balb/C mice; details: all concentrations tested
Experimental: as §1, §2, §3

[3] = tested on: IL1β; experiment: Secretion of IL1β from BzATP/LPS-activated microglia (ELISA); format: cell-based, Balb/C mice
Experimental: as §1, §2, §3

[4] = tested on: TNFα; experiment: TNFα in bronchial fluid, bleomycin-induced lung fibrosis (ELISA); format: in vivo, C57BL/6JOlaHsd mice; details: AN1284 2.5 mg/kg/day, bleomycin, males; 2.5 mg/kg/day
Experimental: (§4) The animal model of bleomycin-induced lung fibrosis is widely used to characterize the potential inhibitory effect of newly developed drugs (Distler et al. 2019). Experiments were performed in C57BL/6JOlaHsd male and female mice aged 12-13 weeks. Male mice weighed 23-27.3 g and female mice, 19.4-21.1 g. They were housed under pathogen-free conditions, up to 6 per cage, in IVC cages under a controlled temperature of 22-24° C., humidity and alternating 12-h light/dark cycles and provided with food and water ad libitum. In order to minimize the stress of daily injection, ladostigil (5 mg/Kg/day) was administered by micro-osmotic pumps, implanted subcutaneously under ketamine/xylazine anesthesia, 5 days before administration of bleomycin, and delivered for 3 weeks to mice of each sex. Saline (2-3/sex) and bleomycin controls were anesthetized as described above. Bleomycin solution (0.25 mg/kg in 50 μl) was instilled into the lumen of the trachea as shown in a video by Ehrentraut et al. (2019). […] TNFα and IL-6 in the bronchial fluid lavage was measured by ELISA as described in the preceding section.
(§5) Experiments were performed in C57BL/6JOlaHsd male mice aged 12-13 weeks as described for ladostigil. […] Fibrosis was measured by staining with Sirius red as described for ladostigil. TNFα and IL-6 in the bronchial fluid lavage was measured by ELISA as described for ladostigil.

[5] = tested on: Activator protein-1; details: cited from earlier work
[6] = tested on: Egr1; experiment: Egr1 in RAW cells activated by LPS; format: cell-based
Experimental: (§6) RAW 264.7 cells were seeded at a density of 1×10^5 cells per well in 48-well culture plates and grown overnight in DMEM supplemented as indicated above. The wells were washed with PBS (pH 7.4). AN1284, prepared in sterile double distilled water and Budesonide (positive control) were added to give final concentrations ranging from 1× 10^−13-1×10^−7M in medium containing 2% FCS. The cells were incubated for 2 h at 37° C. prior to stimulation with LPS, 2.5 μg/mL from Escherichia coli (Sigma-Aldrich serotype 0111: B4). Supernatants were harvested after 8 hrs for measurement of TNF-α and 24 h for IL-6. TNF-α and IL-6 protein were detected by a commercial ELISA kit (Biolegend, San Diego, CA, USA) according to the manufacturer's instructions. Each concentration of each compound was tested in two-three separate experiments in 6 wells per concentration.
(§7) RAW 264.7 cells were lysed in 0.1 ml of buffer containing 150 mM Tris-Cl (pH 6.8), 10% Glycerol, 0.6% SDS, Bromophenol Blue and 100 mM β-Mercaptoethanol. Lysates were collected and heated at 95° C. for 5 min, then centrifuged for 3 min at 2,240 g. Supernatants were used for gel separation. Protein concentration of the lysates was determined by using Coomassie Brilliant Blue staining. […] Molecular changes were assessed semi-quantitatively after incubation with primary antibodies for relevant proteins.

[7] = tested on: MAPK p38; details: cited from earlier work
[8] = tested on: bleomycin-induced lung fibrosis; experiment: Lung fibrosis score / collagen content in bleomycin-induced lung fibrosis; format: in vivo, C57BL/6JOlaHsd mice
Experimental: (§8) The animal model of bleomycin-induced lung fibrosis is widely used to characterize the potential inhibitory effect of newly developed drugs (Distler et al. 2019). Experiments were performed in C57BL/6JOlaHsd male and female mice aged 12-13 weeks. Male mice weighed 23-27.3 g and female mice, 19.4-21.1 g. They were housed under pathogen-free conditions, up to 6 per cage, in IVC cages under a controlled temperature of 22-24° C., humidity and alternating 12-h light/dark cycles and provided with food and water ad libitum. In order to minimize the stress of daily injection, ladostigil (5 mg/Kg/day) was administered by micro-osmotic pumps, implanted subcutaneously under ketamine/xylazine anesthesia, 5 days before administration of bleomycin, and delivered for 3 weeks to mice of each sex. Saline (2-3/sex) and bleomycin controls were anesthetized as described above. Bleomycin solution (0.25 mg/kg in 50 μl) was instilled into the lumen of the trachea as shown in a video by Ehrentraut et al. (2019). […] Mice were weighed daily and sacrificed on day 21. Bronchial fluid was collected as described in Ehrentraut et al. (2019). TNFα and IL-6 in the bronchial fluid lavage was measured by ELISA as described in the preceding section.
Specimens taken from the left lung were embedded in paraffin and cut into 5 μm-thick slices. They were put on slides and paraffin was removed. They were rehydrated and stained with a solution of Sirius red (100 mg/100 ml of [COMPOUND LEFT OUT], rinsed in distilled water until clear, dehydrated and mounted in a resinous medium. The red stain (also called “Sirius red” stain) is one of the best understood histochemical techniques. It relies on the birefringent properties of collagen and is much more specific than the other common collagen stains, Pulmonary fibrosis was evaluated on a score of 0-4 on 15-20 different fields taken from each lung section, according to the area and intensity of fibrotic staining in the field, excluding that in blood vessels. Two independent scientists blinded to the treatment performed the analysis. For TGFβ1 staining, slides were deparaffinized and rehydrated. Antigen retrieval was performed in Tris-based buffer, pH 9.0. Endogenous peroxidase activity was quenched by incubation in 3% H2O2. The tissue was permeabilized with Triton X-100 0.1% in PBS. After blocking, sections were incubated with primary antibody: diluted rabbit recombinant monoclonal TGFβ1 antibody (Abcam ab215715) over night, at 4° C. Slices were further incubated with the secondary antibody: ImmPRESS®-HRP Goat Anti-Rabbit IgG Polymer Detection Kit, Peroxidase (Vector labs VE-MP-7451-15) at room temperature. For color development, sections were incubated in peroxidase substrate solution DAB, at room temperature until desired stain intensity developed. They were then counterstained with filtered hematoxylin and cosin, cleared and mounted.
(§9) Experiments were performed in C57BL/6JOlaHsd male mice aged 12-13 weeks as described for ladostigil. AN1284 (2.5 mg/kg/day) was administered by micro-osmotic pumps, implanted subcutaneously under ketamine/xylazine anesthesia, 5 days before administration of bleomycin and delivered for 3 weeks. Mice were weighed daily, sacrificed on day 21 and bronchial fluid was collected. Fibrosis was measured by staining with Sirius red as described for ladostigil. TNFα and IL-6 in the bronchial fluid lavage was measured by ELISA as described for ladostigil.

[9] = tested on: Nrf2; experiment: Nrf2 in RAW cells activated by LPS; format: cell-based
Experimental: as §6, §7

[10] = tested on: Aryl hydrocarbon receptor (AhR); details: 1 mg/kg/day, two months, NASH mice; cited from earlier work
[11] = Body weight in bleomycin-induced lung fibrosis; format: in vivo, C57BL/6JOlaHsd mice; details: AN1284 2.5 mg/kg/day, days 11 and 14 after bleomycin, males
Experimental: as §8, §9

[12] = tested on: non-alcoholic steatohepatitis (NASH); details: 1 mg/kg/day, two months, micro-osmotic pumps; cited from earlier work
[13] = tested on: cytotoxicity resulting from oxidative stress; details: cited from earlier work
[14] = tested on: IL-6; experiment: IL-6 in bronchial fluid, bleomycin-induced lung fibrosis (ELISA); format: in vivo, C57BL/6JOlaHsd mice; details: AN1284 2.5 mg/kg/day, bleomycin, males; 2.5 mg/kg/day
Experimental: as §4, §5

[15] = tested on: NLRP3; experiment: NLRP3 in RAW cells activated by LPS; format: cell-based
Experimental: as §6, §7

[16] = tested on: LPS-activated macrophages; details: cited from earlier work
[17] = Body weight in bleomycin-induced skin sclerosis; format: in vivo, C57BL/6 mice; details: bleomycin, days 24-27
Experimental: (§10) Male C57BL/6 mice aged 8 weeks were housed under pathogen-free conditions at a controlled temperature of 22-24° C., humidity and alternating 12-h light/dark cycles and provided with food and water ad libitum. Skin sclerosis was induced as described by Ravanetti et al, (2020). A small incision was made in the skin at the back caudal to the scapulae and subcutaneous pocket was created into which an Alzet micro-osmotic pump was implanted, and the incision closed with two stiches and a surgical clip. The pumps contained bleomycin, (delivered at the rate of 60 U/kg body weight) or saline (control) and were removed 10 days after implantation. The mice were monitored daily until they recovered completely and weighed twice weekly from the beginning of the experiment.
(§11) Ladostigil (10 mg/kg/day) was administered in the drinking fluid to 10 mice, housed 2/cage, from 3 days before bleomycin pump installation until the end of the experiment. The fluid intake of the mice was measured daily. The dose of ladostigil was adjusted accordingly. Bleomycin alone, (10 mice) and saline controls (6 mice) received regular drinking fluid.

[18] = tested on: skin sclerosis; experiment: Dermal and hypodermal thickness in bleomycin-induced skin sclerosis; format: in vivo, C57BL/6 mice; details: bleomycin treatment
Experimental: as §10, §11
Skin was harvested on the gluteal region to avoid dermal fibrosis artifact due to proximity to the site of implant. For histological assessment, the samples were dehydrated in a graded ethanol series, clarified in xylene, and paraffin embedded. They were mounted on slides and paraffin was removed. Sections of 5 μm thickness were cut with a rotary microtome and stained with hematoxylin and eosin (H&E)

[19] = Mortality in bleomycin-induced lung fibrosis; format: in vivo, C57BL/6JOlaHsd mice; details: bleomycin alone
Experimental: as §8, with “In order to minimize the stress of daily injection, ladostigil (5 mg/Kg/day) was administered by micro-osmotic pumps, implanted subcutaneously under ketamine/xylazine anesthesia, 5 days before administration of bleomycin, and delivered for 3 weeks to mice of each sex.” left out

CCCC1O[C@@H]2C[C@H]3[C@@H]4CCC5=CC(=O)C=C[C@]5(C)[C@H]4[C@@H](O)C[C@]3(C)[C@]2(C(=O)CO)O1 (stereo partly drawn) [budesonide, reference compound]
reduction of TNFα release [1]: reduced the 3 cytokines significantly
reduction of IL6 release ([2]; added 2 hrs before BzATP and LPS, 0.1% BSA, p<0.01): reduced the 3 cytokines significantly
reduction of IL6 compared with reduction of TNF ([2]; p<0.001): greater than those of TNF
reduction of IL1β release ([3]; all concentrations tested, added 2 hrs before BzATP and LPS, 0.1% BSA, p<0.01): reduced the 3 cytokines significantly
reduction of IL1β compared with reduction of TNFα ([3]; ladostigil 1×10^−9 M, budesonide 1×10^−11 M): greater than that of TNFα

CC(C)NCCCN1CCc2ccccc21.Cl.Cl [AN1284, 3-(indolin-1-yl)-N-isopropylpropan-1-amine 2HCl]
TNFα in bronchial fluid [4]: does not affect levels of pro-inflammatory cytokines; also recorded: did not reduce
nuclear translocation of Activator protein-1 [5]: inhibiting phosphorylation of MAPK p38 and nuclear translocation of Activator protein-1
Egr1 ([6]; LPS + AN1284 0.1 nM, LPS + vehicle 2.7): 1.3
EGR1 ([6]; LPS-activated macrophages): reduced ERG1 in macrophages
phosphorylation of MAPK p38 [7]: inhibiting phosphorylation of MAPK p38
collagen levels / fibrosis score ([8]; AN1284 2.5 mg/kg/day by micro-osmotic pumps, males): reduced fibrosis score
fibrosis (overall conclusion) ([8]; bleomycin-induced lung fibrosis murine model): shown to reduce fibrosis
Nrf2 ([9]; LPS + AN1284 0.1 nM, LPS + vehicle 2.3): 1.6
expression of Nrf2 ([9]; LPS-activated RAW cells): decreased the expression of Nrf2
activation of AhR [10]: activation of the Aryl hydrocarbon receptor (AhR)
body weight loss [11]: reduced body weight loss
steatosis, lipogenesis, and fibrosis [12]: attenuated steatosis, lipogenesis, and fibrosis
cytotoxicity resulting from oxidative stress [13]: inhibited cytotoxicity
IL-6 in bronchial fluid [14]: does not affect levels of pro-inflammatory cytokines; also recorded: did not reduce
NLRP3 ([15]; LPS + AN1284 0.1 nM, LPS + vehicle 1.6): 1.1
expression of NLRP3 ([15]; LPS-activated RAW cells): effectively reduce expression of NLRP3
release of pro-inflammatory cytokines [16]: reduced the release of pro-inflammatory cytokines

bleomycin [reference compound]
weight gain compared with saline [17]: smaller increase in weight
hypodermis thickness change caused [18]: thinning of the hypodermis
skin (dermal) thickness change caused [18]: thickening
mortality ([19]; females, days 7 to 17 (6/38)): 16%
mortality ([19]; males, days 16-19 (5/16)): 31%
